Assay results published in publication PMC9856672, “SGC-CAMKK2-1: A Chemical Probe for CAMKK2” (Cells, 2023).

How the values were obtained:
BRK = biological target: T1, BRK (Homo sapiens, UniProt Q13882); experiment: KINOMEscan 1 μM, BRK; assay type: binding; conditions: 1000 nM; Entrez PTK6; read-out: Percent Control
T1 construct: purchased Eurofins DiscoverX KINOMEscan
Excerpt: (§1) Supplement cells-12-00287-s001.zip/File S2. KinomeScan data for the CAMKK2 probe and negative control.xlsx, sheet "SGC-CAMKK2-1" | column: Percent Control

CAMK1B = biological target: T2, CAMK1B (Homo sapiens, UniProt Q6P2M8); experiment: KINOMEscan 1 μM, CAMK1B; assay type: binding; conditions: 1000 nM; Entrez PNCK; read-out: Percent Control
T2 construct: purchased Eurofins DiscoverX KINOMEscan
Excerpt: as §1

LRRK2 = biological target: T3, LRRK2 (Homo sapiens, UniProt Q5S007); experiment: KINOMEscan 1 μM, LRRK2; assay type: binding; conditions: 1000 nM; Entrez LRRK2; read-out: Percent Control
T3 construct: purchased Eurofins DiscoverX KINOMEscan
Excerpt: as §1

DCAMKL1 = biological target: T4, DCAMKL1 (Homo sapiens, UniProt O15075); experiment: KINOMEscan 1 μM, DCAMKL1; assay type: binding; conditions: 1000 nM; Entrez DCLK1; read-out: Percent Control
T4 construct: purchased Eurofins DiscoverX KINOMEscan
Excerpt: as §1

ALK(L1196M) = biological target: T5, ALK(L1196M) (Homo sapiens, UniProt Q9UM73, L1196M); experiment: KINOMEscan 1 μM, ALK(L1196M); assay type: binding; conditions: 1000 nM; Entrez ALK; read-out: Percent Control
T5 construct: purchased Eurofins DiscoverX KINOMEscan
Excerpt: as §1

ASK1 [1] = biological target: T6, ASK1 (Homo sapiens, UniProt Q99683); experiment: KINOMEscan 1 μM, ASK1; assay type: binding; conditions: 1000 nM; Entrez MAP3K5; read-out: Percent Control
T6 construct: purchased Eurofins DiscoverX KINOMEscan
Excerpt: as §1

RET(V804M) = biological target: T7, RET(V804M) (Homo sapiens, UniProt P07949, V804M); experiment: DiscoverX KINOMEscan binding assay at 1 μM, RET(V804M); conditions: Compound Concentration 1000 nM, read-out: Percent Control
T7 construct: purchased Eurofins DiscoverX KINOMEscan
Excerpt: as §1

CDK7 = biological target: T8, CDK7 (Homo sapiens, UniProt P50613); experiment: KINOMEscan 1 μM, CDK7; assay type: binding; conditions: 1000 nM; Entrez CDK7; read-out: Percent Control
T8 construct: purchased Eurofins DiscoverX KINOMEscan
Excerpt: as §1

FLT3(K663Q) = biological target: T9, FLT3(K663Q) (Homo sapiens, UniProt P36888, K663Q); experiment: KINOMEscan 1 μM, FLT3(K663Q); assay type: binding; conditions: 1000 nM; Entrez FLT3; read-out: Percent Control
T9 construct: purchased Eurofins DiscoverX KINOMEscan
Excerpt: as §1

NDR1 = biological target: T10, NDR1 (Homo sapiens, UniProt Q15208); experiment: KINOMEscan 1 μM, NDR1; assay type: binding; conditions: 1000 nM; Entrez STK38; read-out: Percent Control
T10 construct: purchased Eurofins DiscoverX KINOMEscan
Excerpt: as §1

PKAC-alpha = biological target: T11, PKAC-alpha (Homo sapiens, UniProt P17612); experiment: DiscoverX KINOMEscan binding assay at 1 μM, PKAC-alpha; conditions: PKAC-alpha (PRKACA); Compound Concentration 1000 nM; read-out: Percent Control
T11 construct: purchased Eurofins DiscoverX KINOMEscan
Excerpt: as §1

FLT3(D835H) = biological target: T12, FLT3(D835H) (Homo sapiens, UniProt P36888, D835H); experiment: KINOMEscan 1 μM, FLT3(D835H); assay type: binding; conditions: 1000 nM; Entrez FLT3; read-out: Percent Control
T12 construct: purchased Eurofins DiscoverX KINOMEscan
Excerpt: as §1

DAPK1 = biological target: T13, DAPK1 (Homo sapiens, UniProt P53355); experiment: KINOMEscan 1 μM, DAPK1; assay type: binding; conditions: 1000 nM; Entrez DAPK1; read-out: Percent Control
T13 construct: purchased Eurofins DiscoverX KINOMEscan
Excerpt: as §1

DAPK2 = biological target: T14, DAPK2 (Homo sapiens, UniProt Q9UIK4); experiment: KINOMEscan 1 μM, DAPK2; assay type: binding; conditions: 1000 nM; Entrez DAPK2; read-out: Percent Control
T14 construct: purchased Eurofins DiscoverX KINOMEscan
Excerpt: as §1

TGFBR2 = biological target: T15, TGFBR2 (Homo sapiens, UniProt P37173); experiment: KINOMEscan 1 μM, TGFBR2; assay type: binding; conditions: 1000 nM; Entrez TGFBR2; read-out: Percent Control
T15 construct: purchased Eurofins DiscoverX KINOMEscan
Excerpt: as §1

CSNK2A1 = biological target: T16, CSNK2A1 (Homo sapiens, UniProt P68400); experiment: KINOMEscan at 1 μM, CSNK2A1; assay type: binding; conditions: 1000 nM, read-out: Percent Control
T16 construct: purchased Eurofins DiscoverX KINOMEscan
Excerpt: (§2) Supplement cells-12-00287-s001.zip/File S2. KinomeScan data for the CAMKK2 probe and negative control.xlsx, sheet "SGC-CAMKK2-1N" | column: Percent Control

EIF2AK1 = biological target: T17, EIF2AK1 (Homo sapiens, UniProt Q9BQI3); experiment: KINOMEscan at 1 μM, EIF2AK1; assay type: binding; conditions: 1000 nM, read-out: Percent Control
T17 construct: purchased Eurofins DiscoverX KINOMEscan
Excerpt: as §2

MEK3 = biological target: T18, MEK3 (Homo sapiens, UniProt P46734); experiment: KINOMEscan at 1 μM, MEK3; assay type: binding; conditions: 1000 nM, read-out: Percent Control
T18 construct: purchased Eurofins DiscoverX KINOMEscan
Excerpt: as §2

WNK4 = biological target: T19, WNK4 (Homo sapiens, UniProt Q96J92); experiment: KINOMEscan at 1 μM, WNK4; assay type: binding; conditions: 1000 nM, read-out: Percent Control
T19 construct: purchased Eurofins DiscoverX KINOMEscan
Excerpt: as §2

ERBB4 = biological target: T20, ERBB4 (Homo sapiens, UniProt Q15303); experiment: KINOMEscan at 1 μM, ERBB4; assay type: binding; conditions: 1000 nM, read-out: Percent Control
T20 construct: purchased Eurofins DiscoverX KINOMEscan
Excerpt: as §2

ZAK = biological target: T21, ZAK (Homo sapiens, UniProt Q9NYL2); experiment: KINOMEscan at 1 μM, ZAK; assay type: binding; conditions: 1000 nM, read-out: Percent Control
T21 construct: purchased Eurofins DiscoverX KINOMEscan
Excerpt: as §2

ASK1 [2] = biological target: T6, ASK1; experiment: KINOMEscan at 1 μM, ASK1; assay type: binding; conditions: 1000 nM, read-out: Percent Control
Excerpt: as §2

KIT = biological target: T22, KIT (Homo sapiens, UniProt P10721); experiment: KINOMEscan at 1 μM, KIT; assay type: binding; conditions: 1000 nM, read-out: Percent Control
T22 construct: purchased Eurofins DiscoverX KINOMEscan
Excerpt: as §2

FLT3-autoinhibited = biological target: T23, FLT3-autoinhibited (Homo sapiens, UniProt P36888); experiment: KINOMEscan at 1 μM, FLT3-autoinhibited; assay type: binding; conditions: 1000 nM, read-out: Percent Control
T23 construct: purchased Eurofins DiscoverX KINOMEscan
Excerpt: as §2

PIK3CG = biological target: T24, PIK3CG (Homo sapiens, UniProt P48736); experiment: KINOMEscan at 1 μM, PIK3CG; assay type: binding; conditions: 1000 nM, read-out: Percent Control
T24 construct: purchased Eurofins DiscoverX KINOMEscan
Excerpt: as §2

TRKB = biological target: T25, TRKB (Homo sapiens, UniProt Q16620); experiment: KINOMEscan at 1 μM, TRKB; assay type: binding; conditions: 1000 nM, read-out: Percent Control
T25 construct: purchased Eurofins DiscoverX KINOMEscan
Excerpt: as §2

AAK1 = biological target: T26, AAK1 (Homo sapiens, UniProt Q2M2I8); experiment: KINOMEscan at 1 μM, AAK1; assay type: binding; conditions: 1000 nM, read-out: Percent Control
T26 construct: purchased Eurofins DiscoverX KINOMEscan
Excerpt: as §2

[3] = biological target: T27, RPS6KA5(Kin.Dom.1-N-terminal) (Homo sapiens, UniProt O75582); experiment: KINOMEscan binding assay at 1 μM, RPS6KA5(Kin.Dom.1-N-terminal); conditions: Compound Concentration 1000 nM; read-out: Percent Control
T27 construct: RPS6KA5(Kin.Dom.1-N-terminal); purchased Eurofins DiscoverX KINOMEscan
Excerpt: as §2

CDC2L5 = biological target: T28, CDC2L5 (Homo sapiens, UniProt Q14004); experiment: KINOMEscan at 1 μM, CDC2L5; assay type: binding; conditions: 1000 nM, read-out: Percent Control
T28 construct: purchased Eurofins DiscoverX KINOMEscan
Excerpt: as §2

AMPK-alpha1 = biological target: T29, AMPK-alpha1 (Homo sapiens, UniProt Q13131); experiment: KINOMEscan at 1 μM, AMPK-alpha1; assay type: binding; conditions: 1000 nM, read-out: Percent Control
T29 construct: purchased Eurofins DiscoverX KINOMEscan
Excerpt: as §2

LIMK1 = biological target: T30, LIMK1 (Homo sapiens, UniProt P53667); experiment: KINOMEscan at 1 μM, LIMK1; assay type: binding; conditions: 1000 nM, read-out: Percent Control
T30 construct: purchased Eurofins DiscoverX KINOMEscan
Excerpt: as §2

KIT(D816V) = biological target: T31, KIT(D816V) (Homo sapiens, UniProt P10721, D816V); experiment: KINOMEscan at 1 μM, KIT(D816V); assay type: binding; conditions: 1000 nM, read-out: Percent Control
T31 construct: purchased Eurofins DiscoverX KINOMEscan
Excerpt: as §2

[4] = biological target: T32, ABL1(Q252H)-phosphorylated (Homo sapiens, UniProt P00519, Q252H); experiment: KINOMEscan at 1 μM, ABL1(Q252H)-phosphorylated; assay type: binding; conditions: 1000 nM, read-out: Percent Control
T32 construct: purchased Eurofins DiscoverX KINOMEscan
Excerpt: as §2

T6 sequence (Q99683 whole entry): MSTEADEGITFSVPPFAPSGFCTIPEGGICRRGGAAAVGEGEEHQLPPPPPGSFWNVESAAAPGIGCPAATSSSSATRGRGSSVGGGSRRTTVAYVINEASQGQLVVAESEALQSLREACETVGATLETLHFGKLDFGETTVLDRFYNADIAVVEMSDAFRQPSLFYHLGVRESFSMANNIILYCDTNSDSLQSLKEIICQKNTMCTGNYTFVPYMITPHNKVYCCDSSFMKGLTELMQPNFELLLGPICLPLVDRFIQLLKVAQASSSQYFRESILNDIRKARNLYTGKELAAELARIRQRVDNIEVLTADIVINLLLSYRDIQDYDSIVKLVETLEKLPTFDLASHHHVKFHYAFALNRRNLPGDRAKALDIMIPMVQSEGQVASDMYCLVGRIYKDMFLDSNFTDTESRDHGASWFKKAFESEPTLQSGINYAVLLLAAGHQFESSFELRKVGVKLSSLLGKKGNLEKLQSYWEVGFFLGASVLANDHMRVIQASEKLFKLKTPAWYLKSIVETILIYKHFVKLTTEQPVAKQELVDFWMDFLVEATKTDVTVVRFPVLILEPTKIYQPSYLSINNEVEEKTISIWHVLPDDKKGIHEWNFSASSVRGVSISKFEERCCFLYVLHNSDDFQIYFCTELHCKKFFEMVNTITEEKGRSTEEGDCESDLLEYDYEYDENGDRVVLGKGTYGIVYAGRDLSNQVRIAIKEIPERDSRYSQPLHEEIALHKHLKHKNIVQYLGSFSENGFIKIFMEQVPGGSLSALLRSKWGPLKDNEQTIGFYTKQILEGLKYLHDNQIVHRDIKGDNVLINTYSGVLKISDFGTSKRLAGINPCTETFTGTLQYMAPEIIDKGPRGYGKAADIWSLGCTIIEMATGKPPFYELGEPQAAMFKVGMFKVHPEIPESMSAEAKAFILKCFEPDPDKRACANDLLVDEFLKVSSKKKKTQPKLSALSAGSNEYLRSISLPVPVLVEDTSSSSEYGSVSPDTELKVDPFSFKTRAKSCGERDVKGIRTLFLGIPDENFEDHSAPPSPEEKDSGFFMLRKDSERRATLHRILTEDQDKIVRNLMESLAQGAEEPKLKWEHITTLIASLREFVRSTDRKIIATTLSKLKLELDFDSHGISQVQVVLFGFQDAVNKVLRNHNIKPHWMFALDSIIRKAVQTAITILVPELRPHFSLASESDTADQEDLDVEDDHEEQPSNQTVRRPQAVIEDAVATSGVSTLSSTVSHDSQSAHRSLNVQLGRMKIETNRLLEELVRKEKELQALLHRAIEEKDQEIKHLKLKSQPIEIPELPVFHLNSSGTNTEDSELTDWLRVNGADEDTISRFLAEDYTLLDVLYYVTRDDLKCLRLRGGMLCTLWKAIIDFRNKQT
T19 sequence (Q96J92 whole entry): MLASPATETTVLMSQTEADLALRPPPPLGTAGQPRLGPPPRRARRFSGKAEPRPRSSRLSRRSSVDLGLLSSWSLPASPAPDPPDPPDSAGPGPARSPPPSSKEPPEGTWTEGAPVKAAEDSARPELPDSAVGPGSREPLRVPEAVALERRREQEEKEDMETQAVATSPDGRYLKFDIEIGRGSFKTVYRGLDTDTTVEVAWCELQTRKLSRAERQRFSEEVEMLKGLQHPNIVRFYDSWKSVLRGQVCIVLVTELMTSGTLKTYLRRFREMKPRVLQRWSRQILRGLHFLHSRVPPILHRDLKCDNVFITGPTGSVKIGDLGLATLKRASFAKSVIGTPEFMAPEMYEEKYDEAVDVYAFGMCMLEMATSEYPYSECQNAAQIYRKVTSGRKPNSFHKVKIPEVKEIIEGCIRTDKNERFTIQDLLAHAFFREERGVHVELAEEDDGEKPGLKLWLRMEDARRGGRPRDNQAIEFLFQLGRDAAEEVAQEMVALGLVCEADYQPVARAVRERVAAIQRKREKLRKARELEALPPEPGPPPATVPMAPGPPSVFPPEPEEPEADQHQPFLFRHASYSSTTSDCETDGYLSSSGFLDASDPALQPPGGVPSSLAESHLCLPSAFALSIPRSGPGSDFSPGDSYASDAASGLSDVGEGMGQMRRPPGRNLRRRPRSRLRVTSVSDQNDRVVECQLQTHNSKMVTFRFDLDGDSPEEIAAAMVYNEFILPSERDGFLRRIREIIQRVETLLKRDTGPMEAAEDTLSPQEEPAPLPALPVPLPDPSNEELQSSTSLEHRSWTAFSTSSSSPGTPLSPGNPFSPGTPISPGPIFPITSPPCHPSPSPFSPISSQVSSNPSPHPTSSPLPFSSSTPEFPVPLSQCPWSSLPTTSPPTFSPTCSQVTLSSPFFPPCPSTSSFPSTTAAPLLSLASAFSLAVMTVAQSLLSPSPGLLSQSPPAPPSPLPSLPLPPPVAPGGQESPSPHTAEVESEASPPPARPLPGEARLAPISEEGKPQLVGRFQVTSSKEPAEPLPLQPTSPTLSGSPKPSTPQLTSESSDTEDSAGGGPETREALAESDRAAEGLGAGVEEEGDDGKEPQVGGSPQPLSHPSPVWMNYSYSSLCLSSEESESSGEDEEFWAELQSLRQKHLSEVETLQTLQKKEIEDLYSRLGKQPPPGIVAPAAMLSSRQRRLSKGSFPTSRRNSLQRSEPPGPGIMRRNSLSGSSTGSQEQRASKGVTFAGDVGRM
T27 sequence (O75582 1-387 limits assumed): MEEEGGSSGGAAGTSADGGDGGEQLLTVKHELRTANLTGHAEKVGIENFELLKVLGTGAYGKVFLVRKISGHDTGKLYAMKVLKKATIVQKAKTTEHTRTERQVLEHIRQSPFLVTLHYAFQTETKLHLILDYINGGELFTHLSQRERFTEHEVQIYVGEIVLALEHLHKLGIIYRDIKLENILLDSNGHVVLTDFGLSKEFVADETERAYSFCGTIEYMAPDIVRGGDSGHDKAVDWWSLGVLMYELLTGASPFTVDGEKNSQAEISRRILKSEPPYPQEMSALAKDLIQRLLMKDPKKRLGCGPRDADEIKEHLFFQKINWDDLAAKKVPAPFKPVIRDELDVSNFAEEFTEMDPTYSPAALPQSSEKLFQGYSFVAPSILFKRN
T28 sequence (Q14004 whole entry): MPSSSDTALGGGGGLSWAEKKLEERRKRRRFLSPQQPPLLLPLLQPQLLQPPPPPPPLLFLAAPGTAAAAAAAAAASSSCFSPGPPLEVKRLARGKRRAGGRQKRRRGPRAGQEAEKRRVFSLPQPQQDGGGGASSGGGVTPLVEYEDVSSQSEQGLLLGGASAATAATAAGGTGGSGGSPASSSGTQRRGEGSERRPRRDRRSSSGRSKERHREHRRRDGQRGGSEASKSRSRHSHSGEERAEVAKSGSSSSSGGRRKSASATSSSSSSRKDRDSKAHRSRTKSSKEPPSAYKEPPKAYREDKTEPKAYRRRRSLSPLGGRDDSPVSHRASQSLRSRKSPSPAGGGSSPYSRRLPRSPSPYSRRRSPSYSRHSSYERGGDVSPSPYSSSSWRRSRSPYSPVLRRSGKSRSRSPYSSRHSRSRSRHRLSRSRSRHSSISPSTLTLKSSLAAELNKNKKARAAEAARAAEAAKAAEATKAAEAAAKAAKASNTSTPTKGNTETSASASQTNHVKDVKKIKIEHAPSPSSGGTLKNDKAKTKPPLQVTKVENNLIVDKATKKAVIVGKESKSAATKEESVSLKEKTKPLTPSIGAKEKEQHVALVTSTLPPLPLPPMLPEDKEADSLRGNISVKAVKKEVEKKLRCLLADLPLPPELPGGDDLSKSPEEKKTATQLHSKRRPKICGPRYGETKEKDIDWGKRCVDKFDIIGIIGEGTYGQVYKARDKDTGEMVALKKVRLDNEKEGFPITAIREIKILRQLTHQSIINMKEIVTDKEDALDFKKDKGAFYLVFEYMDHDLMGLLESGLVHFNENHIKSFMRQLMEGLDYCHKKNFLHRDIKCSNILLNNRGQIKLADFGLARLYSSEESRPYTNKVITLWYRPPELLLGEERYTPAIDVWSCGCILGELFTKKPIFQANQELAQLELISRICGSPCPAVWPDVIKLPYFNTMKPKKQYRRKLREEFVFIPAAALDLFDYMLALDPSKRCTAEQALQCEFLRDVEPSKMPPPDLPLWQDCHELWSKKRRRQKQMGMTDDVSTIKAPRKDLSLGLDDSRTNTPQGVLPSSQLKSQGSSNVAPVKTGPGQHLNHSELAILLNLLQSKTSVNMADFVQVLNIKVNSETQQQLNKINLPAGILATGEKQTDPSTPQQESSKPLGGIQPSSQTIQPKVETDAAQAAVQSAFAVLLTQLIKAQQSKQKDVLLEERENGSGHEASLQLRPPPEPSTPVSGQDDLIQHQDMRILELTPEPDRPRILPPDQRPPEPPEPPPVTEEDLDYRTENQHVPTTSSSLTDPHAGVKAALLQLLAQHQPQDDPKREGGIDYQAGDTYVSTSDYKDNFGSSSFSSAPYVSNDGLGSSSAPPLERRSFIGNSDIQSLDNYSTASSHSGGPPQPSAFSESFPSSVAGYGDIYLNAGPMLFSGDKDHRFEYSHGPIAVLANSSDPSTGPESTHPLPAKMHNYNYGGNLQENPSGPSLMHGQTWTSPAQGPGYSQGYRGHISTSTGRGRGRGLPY
T18 sequence (P46734 whole entry): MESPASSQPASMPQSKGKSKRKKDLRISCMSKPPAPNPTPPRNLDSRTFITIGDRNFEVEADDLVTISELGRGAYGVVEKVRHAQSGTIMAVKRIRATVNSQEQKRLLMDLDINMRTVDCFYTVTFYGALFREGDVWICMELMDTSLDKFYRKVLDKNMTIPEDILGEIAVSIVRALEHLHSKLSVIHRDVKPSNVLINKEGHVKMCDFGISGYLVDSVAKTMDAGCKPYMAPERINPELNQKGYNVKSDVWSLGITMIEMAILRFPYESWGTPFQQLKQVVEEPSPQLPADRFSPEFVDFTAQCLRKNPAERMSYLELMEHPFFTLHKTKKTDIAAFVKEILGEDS

Question: For `Cc1cccc(-c2cnc3occ(-c4ccc(C(=O)O)c(C5CCCC5)c4)c3c2)c1` [SGC-CAMKK2-1 (YL-36)], which remaining binding at 1 µM (BRK) is on record?
Answer: The remaining binding at 1 µM was 100%.

Question: What about the remaining binding at 1 µM (CAMK1B) of the same molecule?
Answer: Its remaining binding at 1 µM is 64%.

Question: What about the remaining binding at 1 µM (LRRK2) of the same molecule?
Answer: The remaining binding at 1 µM was 70%.

Question: And the remaining binding at 1 µM (DCAMKL1)?
Answer: The remaining binding at 1 µM was 100%.

Question: And the remaining binding at 1 µM (ALK(L1196M))?
Answer: The remaining binding at 1 µM was 96%.

Question: And the remaining binding at 1 µM (ASK1 [1])?
Answer: The remaining binding at 1 µM was 100%.

Question: What about the remaining binding at 1 µM (RET(V804M)) of the same molecule?
Answer: The remaining binding at 1 µM was 100%.

Question: And the remaining binding at 1 µM (CDK7)?
Answer: Its remaining binding at 1 µM is 92%.

Question: And the remaining binding at 1 µM (FLT3(K663Q))?
Answer: Its remaining binding at 1 µM is 100%.

Question: And the remaining binding at 1 µM (NDR1)?
Answer: Its remaining binding at 1 µM is 100%.

Question: What about the remaining binding at 1 µM (PKAC-alpha) of the same molecule?
Answer: The remaining binding at 1 µM was 100%.

Question: What about the remaining binding at 1 µM (FLT3(D835H)) of the same molecule?
Answer: The remaining binding at 1 µM was 87%.

Question: And the remaining binding at 1 µM (DAPK1)?
Answer: Its remaining binding at 1 µM is 100%.

Question: What about the remaining binding at 1 µM (DAPK2) of the same molecule?
Answer: The remaining binding at 1 µM was 94%.

Question: And the remaining binding at 1 µM (TGFBR2)?
Answer: The remaining binding at 1 µM was 91%.

Question: `O=C(O)c1ccc(-c2coc3ncc(-c4ccccc4)cc23)cc1Cl` [SGC-CAMKK2-1N (UNC-YL-83)] was tested. Which remaining binding at 1 µM (CSNK2A1) did it give?
Answer: The remaining binding at 1 µM was 80%.

Question: What about the remaining binding at 1 µM (EIF2AK1) of the same molecule?
Answer: Its remaining binding at 1 µM is 42%.

Question: And the remaining binding at 1 µM (MEK3)?
Answer: Its remaining binding at 1 µM is 89%.

Question: What about the remaining binding at 1 µM (WNK4) of the same molecule?
Answer: Its remaining binding at 1 µM is 93%.

Question: And the remaining binding at 1 µM (ERBB4)?
Answer: Its remaining binding at 1 µM is 83%.

Question: And the remaining binding at 1 µM (ZAK)?
Answer: Its remaining binding at 1 µM is 69%.

Question: What about the remaining binding at 1 µM (ASK1 [2]) of the same molecule?
Answer: Its remaining binding at 1 µM is 100%.

Question: What about the remaining binding at 1 µM (KIT) of the same molecule?
Answer: The remaining binding at 1 µM was 89%.

Question: And the remaining binding at 1 µM (FLT3-autoinhibited)?
Answer: The remaining binding at 1 µM was 91%.

Question: And the remaining binding at 1 µM (PIK3CG)?
Answer: Its remaining binding at 1 µM is 66%.

Question: And the remaining binding at 1 µM (TRKB)?
Answer: The remaining binding at 1 µM was 81%.

Question: What about the remaining binding at 1 µM (AAK1) of the same molecule?
Answer: The remaining binding at 1 µM was 87%.

Question: And the remaining binding at 1 µM [3]?
Answer: The remaining binding at 1 µM was 100%.

Question: What about the remaining binding at 1 µM (CDC2L5) of the same molecule?
Answer: The remaining binding at 1 µM was 57%.

Question: And the remaining binding at 1 µM (AMPK-alpha1)?
Answer: Its remaining binding at 1 µM is 100%.

Question: And the remaining binding at 1 µM (LIMK1)?
Answer: The remaining binding at 1 µM was 88%.

Question: And the remaining binding at 1 µM (KIT(D816V))?
Answer: Its remaining binding at 1 µM is 32%.

Question: And the remaining binding at 1 µM [4]?
Answer: Its remaining binding at 1 µM is 61%.
